This passage reports IC50 results from patent US11407737B2, “Inhibitors of RAF kinases” (Kinnate Biopharma Inc., priority 2020, dated 2022).

Each structure is given as a SMILES string.

human RAF1, sequence (P04049 whole entry): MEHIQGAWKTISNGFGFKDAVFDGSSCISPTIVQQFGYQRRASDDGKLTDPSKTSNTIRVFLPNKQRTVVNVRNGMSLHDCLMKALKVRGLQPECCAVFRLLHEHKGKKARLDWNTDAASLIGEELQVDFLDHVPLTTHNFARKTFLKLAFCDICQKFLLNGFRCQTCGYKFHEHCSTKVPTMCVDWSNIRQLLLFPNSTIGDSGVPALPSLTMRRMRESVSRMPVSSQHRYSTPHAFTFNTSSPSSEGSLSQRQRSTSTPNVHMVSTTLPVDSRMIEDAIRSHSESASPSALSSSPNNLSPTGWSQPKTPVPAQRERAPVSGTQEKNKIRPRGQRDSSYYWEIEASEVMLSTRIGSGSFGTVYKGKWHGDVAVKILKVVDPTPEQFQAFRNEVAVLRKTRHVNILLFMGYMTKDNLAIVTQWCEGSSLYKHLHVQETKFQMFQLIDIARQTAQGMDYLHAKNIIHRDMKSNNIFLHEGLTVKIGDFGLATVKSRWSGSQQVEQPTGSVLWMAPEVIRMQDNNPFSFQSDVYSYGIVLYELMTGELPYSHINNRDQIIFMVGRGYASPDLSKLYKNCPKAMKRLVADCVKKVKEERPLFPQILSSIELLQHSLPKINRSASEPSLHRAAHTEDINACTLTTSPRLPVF

This test concerns the target human RAF1 (Homo sapiens (Human), UniProt P04049). As to the kind of experiment: Protein kinase assay (radiometric 33P-ATP, MEK1 (K97R) substrate), RAF-1. Conditions: human MEK1 (K97R) substrate 3 micromolar, ATP 10 micromolar; 10-dose, 3-fold serial dilution starting at 10 micromolar; read-out: RAF-1 IC50. Format: biochemical. In short, it runs like this:
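Radiometric filter-binding assay with RAF1 and MEK1 (K97R) substrate at 3 micromolar and 10 micromolar final ATP, in HEPES pH 7.5 buffer with 1% DMSO. Reactions ran 2 hr at room temperature with [γ-33P]ATP. IC50 was derived from remaining activity relative to DMSO control.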
For the molecule `Cc1ccc(NC(=O)N2CC[C@@H](CC(F)(F)F)C2)cc1-c1cc(-c2cnn(CCO)c2)nc(N2CCOCC2)c1` [Example 58, (3S)—N-(3-(2-(1-(2-hydroxyethyl)-1H-pyrazol-4-yl)-6-morpholinopyridin-4-yl)-4-methylphenyl)-3-(2,2,2-trifluoroethyl)pyrrolidine-1-carboxamide], the IC50 lay within 1 to 10 nM. Then `Cc1ccc(NC(=O)N2CC[C@@H](CC(F)(F)F)C2)cc1-c1cc(-c2ccnn2CCO)nc(N2CCOCC2)c1` [Example 59, (3S)—N-(3-{2-[2-(2-hydroxyethyl)pyrazol-3-yl]-6-(morpholin-4-yl)pyridin-4-yl}-4-methylphenyl)-3-(2,2,2-trifluoroethyl)pyrrolidine-1-carboxamide], with 1 to 10 nM; and `Cc1ccc(NC(=O)N2CC[C@@H](CC(F)(F)F)C2)cc1-c1cc(CO)nc(N2CCOCC2)c1` [Example 60, (3S)—N-[3-[2-(hydroxymethyl)-6-(morpholin-4-yl)pyridin-4-yl]-4-methylphenyl]-3-(2,2,2-trifluoroethyl)pyrrolidine-1-carboxamide], with 1 to 10 nM. Then `Cc1ccc(NC(=O)N2CC[C@@H](CC(F)(F)F)C2)cc1-c1cc(-c2nncn2C)nc(N2CCOCC2)c1` [Example 61, (3S)—N-{4-methyl-3-[2-(4-methyl-1,2,4-triazol-3-yl)-6-(morpholin-4-yl)pyridin-4-yl]phenyl}-3-(2,2,2-trifluoroethyl)pyrrolidine-1-carboxamide], with 1 to 10 nM; and `Cc1ccc(NC(=O)N2CCO[C@H](C(F)(F)F)C2)cc1-c1cc(-c2cnn(C)c2)nc(N2CCOCC2)c1` [Example 62, (2S)—N-{4-methyl-3-[2-(1-methylpyrazol-4-yl)-6-(morpholin-4-yl)pyridin-4-yl]phenyl}-2-(trifluoromethyl)morpholine-4-carboxamide], with 1 to 10 nM. Then `Cc1ccc(NC(=O)N2CCO[C@@H](C(F)(F)F)C2)cc1-c1cc(-c2cnn(C)c2)nc(N2CCOCC2)c1` [Example 63, (2R)—N-{4-methyl-3-[2-(1-methylpyrazol-4-yl)-6-(morpholin-4-yl)pyridin-4-yl]phenyl}-2-(trifluoromethyl)morpholine-4-carboxamide], with 1 to 10 nM; and `Cc1ccc(NC(=O)N2CC[C@@H](OC(F)(F)F)C2)cc1-c1cc(-c2cnn(C)c2)nc(N2CCOCC2)c1` [Example 64, (3R)—N-{4-methyl-3-[2-(1-methylpyrazol-4-yl)-6-(morpholin-4-yl)pyridin-4-yl]phenyl}-3-(trifluoromethoxy)pyrrolidine-1-carboxamide], with 1 to 10 nM. As for `Cc1ccc(NC(=O)N2CCO[C@@H](C(F)(F)F)C2)cc1-c1cc(-c2ccnn2C)nc(N2CCOCC2)c1` [Example 65, (2R)—N-{4-methyl-3-[2-(2-methylpyrazol-3-yl)-6-(morpholin-4-yl)pyridin-4-yl]phenyl}-2-(trifluoromethyl)morpholine-4-carboxamide], the half-inhibitory concentration (IC50) is less than 1 nM. Then `Cc1ccc(NC(=O)N2CC=C(C(F)(F)F)C2)cc1-c1cc(-c2cnn(C)c2)nc(N2CCOCC2)c1` [Example 66, N-{4-methyl-3-[2-(1-methylpyrazol-4-yl)-6-(morpholin-4-yl)pyridin-4-yl]phenyl}-3-(trifluoromethyl)-2,5-dihydropyrrole-1-carboxamide], with less than 1 nM; and `Cc1cc(F)c(NC(=O)N2CCO[C@H](C(F)(F)F)C2)cc1-c1cc(-c2cnn(C)c2)nc(N2CCOCC2)c1` [Example 67, (2S)—N-{2-fluoro-4-methyl-5-[2-(1-methylpyrazol-4-yl)-6-(morpholin-4-yl)pyridin-4-yl]phenyl}-2-(trifluoromethyl)morpholine-4-carboxamide], with less than 1 nM. Then `Cc1cc(F)c(NC(=O)N2CCO[C@@H](C(F)(F)F)C2)cc1-c1cc(-c2cnn(C)c2)nc(N2CCOCC2)c1` [Example 68, (2R)—N-{2-fluoro-4-methyl-5-[2-(1-methylpyrazol-4-yl)-6-(morpholin-4-yl)pyridin-4-yl]phenyl}-2-(trifluoromethyl)morpholine-4-carboxamide], with less than 1 nM; and `Cc1cc(F)c(NC(=O)N2CC=C(C(F)(F)F)C2)cc1-c1cc(-c2cnn(C)c2)nc(N2CCOCC2)c1` [Example 69, N-{2-fluoro-4-methyl-5-[2-(1-methylpyrazol-4-yl)-6-(morpholin-4-yl)pyridin-4-yl]phenyl}-3-(trifluoromethyl)-2,5-dihydropyrrole-1-carboxamide], with less than 1 nM; and `Cc1cc(-c2cc(NC(=O)N3CC[C@@H](CC(F)(F)F)C3)c(F)cc2C)cc(N2CCOCC2)n1` [Example 70, (3S)—N-{2-fluoro-4-methyl-5-[2-methyl-6-(morpholin-4-yl)pyridin-4-yl]phenyl}-3-(2,2,2-trifluoroethyl)pyrrolidine-1-carboxamide], with less than 1 nM.

For `Cc1cc(F)c(NC(=O)N2CC[C@@H](CC(F)(F)F)C2)cc1-c1cc(C2CC2)nc(N2CCOCC2)c1` [Example 71, (3S)—N-{5-[2-cyclopropyl-6-(morpholin-4-yl)pyridin-4-yl]-2-fluoro-4-methylphenyl}-3-(2,2,2-trifluoroethyl)pyrrolidine-1-carboxamide], the IC50 is less than 1 nM.

Consider `CCc1cc(-c2cc(NC(=O)N3CC[C@@H](CC(F)(F)F)C3)c(F)cc2C)cc(N2CCOCC2)n1` [Example 72, (3S)—N-{5-[2-ethyl-6-(morpholin-4-yl)pyridin-4-yl]-2-fluoro-4-methylphenyl}-3-(2,2,2-trifluoroethyl)pyrrolidine-1-carboxamide], for which the IC50 is less than 1 nM. With `Cc1cc(F)c(NC(=O)N2CC=C(C(F)(F)F)C2)cc1-c1cc(-c2ccnn2C)nc(N2CCOCC2)c1` [Example 73, N-{2-fluoro-4-methyl-5-[2-(2-methylpyrazol-3-yl)-6-(morpholin-4-yl)pyridin-4-yl]phenyl}-3-(trifluoromethyl)-2,5-dihydropyrrole-1-carboxamide], the IC50 is less than 1 nM.

In the case of `Cc1cc(F)c(NC(=O)N2CC[C@@H](CC(F)(F)F)C2)cc1-c1cc(-c2cnn(C)c2)nc(N2CCOCC2)c1` [Example 74, (3S)—N-{2-fluoro-4-methyl-5-[2-(1-methylpyrazol-4-yl)-6-(morpholin-4-yl)pyridin-4-yl]phenyl}-3-(2,2,2-trifluoroethyl)pyrrolidine-1-carboxamide], the IC50 is less than 1 nM.

Turning to `Cc1cc(F)c(NC(=O)N2CC[C@@H](C(F)(F)F)C2)cc1-c1cc(-c2cnn(C)c2)nc(N2CCOCC2)c1` [Example 75, (3R)—N-{2-fluoro-4-methyl-5-[2-(1-methylpyrazol-4-yl)-6-(morpholin-4-yl)pyridin-4-yl]phenyl}-3-(trifluoromethyl)pyrrolidine-1-carboxamide], the IC50 is less than 1 nM.

For the molecule `Cc1cc(F)c(NC(=O)N2CC[C@H](C(F)(F)F)C2)cc1-c1cc(-c2cnn(C)c2)nc(N2CCOCC2)c1` [Example 76, (3S)—N-{2-fluoro-4-methyl-5-[2-(1-methylpyrazol-4-yl)-6-(morpholin-4-yl)pyridin-4-yl]phenyl}-3-(trifluoromethyl)pyrrolidine-1-carboxamide], the IC50 was less than 1 nM. Then `Cc1cc(F)c(NC(=O)N2CC=C(CC(F)(F)F)C2)cc1-c1cc(-c2cnn(C)c2)nc(N2CCOCC2)c1` [Example 77, N-{2-fluoro-4-methyl-5-[2-(1-methylpyrazol-4-yl)-6-(morpholin-4-yl)pyridin-4-yl]phenyl}-3-(2,2,2-trifluoroethyl)-2,5-dihydropyrrole-1-carboxamide], with less than 1 nM; and `CCn1cc(-c2cc(-c3cc(NC(=O)N4CC[C@@H](CC(F)(F)F)C4)ccc3C)cc(N3CCOCC3)n2)cn1` [Example 78, (3S)—N-{3-[2-(1-ethylpyrazol-4-yl)-6-(morpholin-4-yl)pyridin-4-yl]-4-methylphenyl}-3-(2,2,2-trifluoroethyl)pyrrolidine-1-carboxamide], with less than 1 nM.

In the case of `Cc1cc(F)c(NC(=O)N2CC=C(C(F)(F)C(F)(F)F)C2)cc1-c1cc(-c2cnn(C)c2)nc(N2CCOCC2)c1` [Example 79, N-{2-fluoro-4-methyl-5-[2-(1-methylpyrazol-4-yl)-6-(morpholin-4-yl)pyridin-4-yl]phenyl}-3-(1,1,2,2,2-pentafluoroethyl)-2,5-dihydropyrrole-1-carboxamide], the IC50 is 1 to 10 nM. Regarding `Cc1cc(F)c(NC(=O)N2CC[C@H](C(C)(C)C)C2)cc1-c1cc(-c2cnn(C)c2)nc(N2CCOCC2)c1` [Example 83, (3R)-3-tert-butyl-N-{2-fluoro-4-methyl-5-[2-(1-methylpyrazol-4-yl)-6-(morpholin-4-yl)pyridin-4-yl]phenyl}pyrrolidine-1-carboxamide], the IC50 was 1 to 10 nM. The result for `Cc1cc(F)c(NC(=O)N2CCC(C(C)(C)F)C2)cc1-c1cc(-c2cnn(C)c2)nc(N2CCOCC2)c1` (stereo not drawn) [Example 85, N-{2-fluoro-4-methyl-5-[2-(1-methylpyrazol-4-yl)-6-(morpholin-4-yl)pyridin-4-yl]phenyl}-3-(2-fluoropropan-2-yl)pyrrolidine-1-carboxamide] reads 1 to 10 nM.

For orientation: IC50 means the midpoint of a concentration-inhibition curve.
